In brackets after ≈: the same amount, converted by molar mass. Where two headings read alike, the source gives them in different places.
Key:
in vitro [1] = conditions: dog
[2] = test system: Influenza B (B/Ned/537/05); assay: Influenza CPE reduction in MDCK cells, MTS assay, influenza B; format: cell-based; conditions: Influenza B virus, inhibition of virus-induced CPE by MTS assay, read-out: Antiviral EC50 Influenza B
[3] = test system: Influenza A/H3N2 (A/Victoria/361/11); assay: Influenza CPE reduction in MDCK cells, MTS assay, A/H3N2; format: cell-based; conditions: Influenza A virus, H3N2; MDCK cells; A/Victoria/361/11; inhibition of virus-induced CPE by MTS assay; read-out: Antiviral EC50 Influenza A/H3N2
[4] = test system: Influenza A/H1N1 (A/Ned/378/05); assay: Influenza CPE reduction in MDCK cells, MTS assay, A/H1N1; format: cell-based; conditions: Influenza A virus, H1N1; MDCK cells; A/Ned/378/05; inhibition of virus-induced CPE by MTS assay; read-out: Antiviral EC50 Influenza A/H1N1
[5] = test system: S. aureus MRSA ATCC 33591; assay: Broth microdilution MIC, S. aureus MRSA ATCC 33591; format: cell-based; conditions: for MIC: Staphylococcus aureus, read-out: In Vitro MIC
Method: (§1) Antibacterial tests were carried out by the broth microdilution method on a panel of eight Gram-positive bacterial strains, using vancomycin and teicoplanin as reference compounds.

[6] = test system: S. aureus MSSA ATCC 29213; assay: Broth microdilution MIC, S. aureus MSSA ATCC 29213; format: cell-based; conditions: for MIC: Staphylococcus aureus, read-out: In Vitro MIC
Method: as §1

E. faecalis ATCC 29212 = assay: Broth microdilution MIC, E. faecalis ATCC 29212; format: cell-based; conditions: for MIC: Enterococcus faecalis
Method: as §1

[7] = test system: E. faecalis ATCC 51,299 VanB; assay: Broth microdilution MIC, E. faecalis ATCC 51,299 VanB; format: cell-based; conditions: for MIC: Enterococcus faecalis, ATCC51, read-out: In Vitro MIC
Method: as §1

influenza A or B viruses = assay: Anti-influenza virus activity in MDCK cells, MTS assay, overall for the three influenza A or B viruses; format: cell-based, Influenza A and B viruses
[8] = test system: S. epidermidis ATCC 35984; assay: Broth microdilution MIC, S. epidermidis ATCC 35984; format: cell-based; conditions: for MIC: Staphylococcus epidermidis
Method: as §1

E. faecalis 15,376 VanA = assay: Broth microdilution MIC, E. faecalis 15,376 VanA; format: cell-based; conditions: for MIC: Enterococcus faecalis, read-out: In Vitro MIC
Method: as §1

B. subtilis ATCC 6633 = assay: Broth microdilution MIC, B. subtilis ATCC 6633; format: cell-based; conditions: for MIC: Bacillus subtilis
Method: as §1

S. epidermidis mecA = assay: Broth microdilution MIC, S. epidermidis mecA; format: cell-based; conditions: for MIC: Staphylococcus epidermidis, read-out: In Vitro MIC
Method: as §1

[9] = test system: vaccinia virus (strain Lederle); assay: microbe, parasite or virus in culture; format: cell-based; conditions: Orthopoxvirus vaccinia, HEL, read-out: Antiviral EC50 Vaccinia Virus
in vitro [10] = conditions: human
[11] = test system: herpes simplex virus type 2 (HSV-2, strain G); assay: CPE reduction, MTS assay, HSV-2 in HEL cells; format: cell-based; conditions: Human alphaherpesvirus 2, protection against virus-induced CPE, read-out: Antiviral EC50 HSV-2
in vitro [12] = conditions: human; remark: listed apart in the source
[13] = test system: herpes simplex virus type 1 (HSV-1 strain KOS); assay: CPE reduction, MTS assay, HSV-1 in HEL cells; format: cell-based; conditions: Human alphaherpesvirus 1, protection against virus-induced CPE, read-out: Antiviral EC50 HSV-1
in vitro [14] = conditions: African green monkey
[15] = test system: HeLa, human cervix carcinoma cells; conditions: read-out: CC50 HeLa; mock-infected HeLa cells, MTS assay
[16] = test system: Vero, African Green monkey kidney cells; conditions: read-out: CC50 Vero; mock-infected Vero cells, MTS assay
A/PR/8/34 virus = format: cell-based, Influenza A virus
MDCK cells = conditions: read-out: CC50 (50% cytotoxic concentration), mock-infected, MTS cell viability assay, three days
[17] = test system: HEL, human embryonic lung fibroblast cells; conditions: read-out: CC50 HEL; mock-infected HEL cells, MTS assay
[18] = ATCC29212, read-out: In Vitro MIC
[19] = ATCC35984, read-out: In Vitro MIC
[20] = ATCC6633, read-out: In Vitro MIC
[21] = S. aureus MSSA ATCC 29213, broth microdilution

| Compound | CC50 (in vitro [1]) | EC50 [2] | EC50 [3] | EC50 [4] | MIC [5] | MIC [6] | MIC (E. faecalis ATCC 29212; [18]) | MIC [7] | anti-influenza virus activity (in words) (influenza A or B viruses) | MIC [8, 19] | MIC (E. faecalis 15,376 VanA) | MIC (B. subtilis ATCC 6633; [20]) | MIC (S. epidermidis mecA) | further results |
| --- | --- | --- | --- | --- | --- | --- | --- | --- | --- | --- | --- | --- | --- | --- |
| CC(=O)N[C@H]1[C@H]([C@H](O)[C@H](O)CO)OC(C(=O)O)=C[C@@H]1N=C(N)N [Zanamivir, reference compound] | > 100 µM | 4.5 µM | 9 µM | 0.4 µM | – | – | – | – | – | – | – | – | – | – |
| CCCCCCS(=O)(=O)NC1C(=O)NC(CC(N)=O)C(=O)NC2C(=O)NC3C(=O)NC(C(=O)NC(C(=O)O)c4cc(O)cc(O)c4-c4cc3ccc4O)C(O)c3ccc(c(Cl)c3)Oc3cc2cc(c3O)Oc2ccc(cc2Cl)C1O (centres unmarked) [Compound 8] | 100 µM | > 100 µM | > 100 µM | > 100 µM | 256 µg/mL (≈ 220 µM) | 256 µg/mL (≈ 220 µM) | 32 µg/mL (≈ 27.5 µM) | 128 µg/mL (≈ 110 µM) | inactive | 32 µg/mL (≈ 27.5 µM) | 256 µg/mL (≈ 220 µM) | 32 µg/mL (≈ 27.5 µM) | 64 µg/mL (≈ 54.9 µM) | – |
| CN[C@H](CC(C)C)C(=O)N[C@H]1C(=O)N[C@@H](CC(N)=O)C(=O)N[C@H]2C(=O)N[C@H]3C(=O)N[C@H](C(=O)N[C@H](C(=O)O)c4cc(O)cc(O)c4-c4cc3ccc4O)[C@H](O)c3ccc(c(Cl)c3)Oc3cc2cc(c3O[C@@H]2O[C@H](CO)[C@@H](O)[C@H](O)[C@H]2O[C@H]2C[C@](C)(N)[C@H](O)[C@H](C)O2)Oc2ccc(cc2Cl)[C@H]1O [VAN, vancomycin] | – | – | – | – | 0.5 µg/mL (≈ 0.345 µM) | 0.5 µg/mL (≈ 0.345 µM) | 1 µg/mL (≈ 0.69 µM) | 128 µg/mL (≈ 88.3 µM) | – | 2 µg/mL (≈ 1.38 µM) | 256 µg/mL (≈ 177 µM) | 0.5 µg/mL (≈ 0.345 µM) | 4 µg/mL (≈ 2.76 µM) | – |
| Nc1nc(O)c2ncn(COC(CO)CO)c2n1 [Ganciclovir] | – | – | – | – | – | – | – | – | – | – | – | – | – | EC50 [9]: > 100 µM; CC50 (in vitro [10]): > 100 µM; EC50 [11]: 0.03 µM; CC50 (in vitro [12]): > 100 µM; EC50 [13]: 0.1 µM; CC50 (in vitro [14]): > 100 µM |
| CCCCSC1=C(SCCCC)C(=O)N(CCOCCOCCOCCOCc2cn(C3C(=O)NC(CC(N)=O)C(=O)NC4C(=O)NC5C(=O)NC(C(=O)NC(C(=O)O)c6cc(O)cc(O)c6-c6cc5ccc6O)C(O)c5ccc(c(Cl)c5)Oc5cc4cc(c5O)Oc4ccc(cc4Cl)C3O)nn2)C1=O (centres unmarked) [Compound 7] | – | – | – | – | 256 µg/mL (≈ 167 µM) | – | – | 256 µg/mL (≈ 167 µM) | robust activity | – | 256 µg/mL (≈ 167 µM) | – | 32 µg/mL (≈ 20.9 µM) | CC50 [15]: > 100 µM; CC50 [16]: > 100 µM; MIC [6, 21]: 256 µg/mL (≈ 167 µM); virus-induced cytopathic effect (CPE) upon microscopic inspection (A/PR/8/34 virus): no virus-induced cytopathic effect (CPE) was observed; MIC (E. faecalis ATCC 29212; ATCC29212, E. faecalis ATCC 29212, broth microdilution, read-out: In Vitro MIC): 32 µg/mL (≈ 20.9 µM); MIC ([8]; ATCC35984, S. epidermidis ATCC 35984, broth microdilution, read-out: In Vitro MIC): 32 µg/mL (≈ 20.9 µM); MIC (B. subtilis ATCC 6633; ATCC6633, B. subtilis ATCC 6633, broth microdilution, read-out: In Vitro MIC): 32 µg/mL (≈ 20.9 µM); CC50 (MDCK cells): 18 µM; CC50 [17]: > 100 µM |
| teicoplanin [reference compound] | – | – | – | – | – | – | – | – | – | – | – | – | – | In Vitro MIC ([5]; S. aureus MRSA ATCC 33591, broth microdilution): 0.5 µg/mL; In Vitro MIC [6, 21]: 0.5 µg/mL; In Vitro MIC (E. faecalis ATCC 29212; E. faecalis ATCC 29212, broth microdilution): 1 µg/mL; In Vitro MIC ([7]; E. faecalis ATCC 51,299 VanB, broth microdilution): 0.5 µg/mL; In Vitro MIC ([8]; S. epidermidis ATCC 35984, broth microdilution): 4 µg/mL; In Vitro MIC (E. faecalis 15,376 VanA; E. faecalis 15,376 VanA, broth microdilution): 256 µg/mL; In Vitro MIC (B. subtilis ATCC 6633; B. subtilis ATCC 6633, broth microdilution): 0.5 µg/mL; In Vitro MIC (S. epidermidis mecA; S. epidermidis mecA, broth microdilution): 16 µg/mL |
